Assay results published in paper PMC10112881 (Cell reports, 2023).
Where two headings read alike, the source gives them in different places.

What was measured:
hERG (KV11.1) channel [1] = biological target: T1, hERG (KV11.1) channel (Homo sapiens, UniProt Q12809); details: read-out: IC50 (hERG inhibition)
[2] = tested on: primary rat cortical neurons; test: Cell viability of primary cortical neurons; type: cell-based; details: every tested concentration
H2 = H2 (Homo sapiens, UniProt P25021); test: G protein dissociation BRET assay; type: cell-based
head-twitch response = test: Head-twitch response
5-HT4 = 5-HT4 (Homo sapiens, UniProt Q13639); test: G protein dissociation BRET assay; type: cell-based
hERG (KV11.1) channel [3] = biological target: T1, hERG (KV11.1) channel; test: hERG inhibition
α1A = α1A (Homo sapiens, UniProt P35348); test: G protein dissociation BRET assay; type: cell-based; details: read-out: KB (antagonist)
rat cortical neurons [4] = test: Spinogenesis in cultured cortical neurons; type: cell-based; details: 1 and 10 μM, 3 h at DIV18, read 24 h after onset
HTR induced by DOI [5] = test: Tolerance to DOI-induced HTR after repeated treatment; details: 3 mg/kg/day IP 7 days, DOI 1 mg/kg challenge 24 h later
α2C = α2C (Homo sapiens, UniProt P18825); test: G protein dissociation BRET assay; type: cell-based
Chain of α2C (P18825 whole entry): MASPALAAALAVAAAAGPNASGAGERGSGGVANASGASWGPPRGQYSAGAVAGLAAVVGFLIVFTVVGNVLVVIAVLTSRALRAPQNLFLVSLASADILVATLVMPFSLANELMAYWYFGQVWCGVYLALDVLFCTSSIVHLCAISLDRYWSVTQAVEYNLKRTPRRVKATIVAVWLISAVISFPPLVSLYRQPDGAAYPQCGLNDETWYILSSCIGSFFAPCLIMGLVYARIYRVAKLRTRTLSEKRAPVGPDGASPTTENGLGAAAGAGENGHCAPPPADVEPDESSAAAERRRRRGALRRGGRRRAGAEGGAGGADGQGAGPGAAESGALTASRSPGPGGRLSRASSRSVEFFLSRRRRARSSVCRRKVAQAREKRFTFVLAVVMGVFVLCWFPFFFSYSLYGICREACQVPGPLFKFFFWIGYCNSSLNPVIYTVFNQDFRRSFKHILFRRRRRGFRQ

5-HT1A = 5-HT1A (Homo sapiens, UniProt P08908); test: β-arrestin2 recruitment BRET assay; type: cell-based
[6] = Chronic variable stress: splash test; type: in vivo, female mice; details: 1X 3 mg/kg and 4X 1 mg/kg groups
PFC pyramidal neurons = test: Spine density in prefrontal cortex; details: 1 mg/kg IP, ~26 h after treatment, both sexes
D2 = D2 (Homo sapiens, UniProt P14416); test: G protein dissociation BRET assay; type: cell-based
Chain of D2 (P14416 whole entry): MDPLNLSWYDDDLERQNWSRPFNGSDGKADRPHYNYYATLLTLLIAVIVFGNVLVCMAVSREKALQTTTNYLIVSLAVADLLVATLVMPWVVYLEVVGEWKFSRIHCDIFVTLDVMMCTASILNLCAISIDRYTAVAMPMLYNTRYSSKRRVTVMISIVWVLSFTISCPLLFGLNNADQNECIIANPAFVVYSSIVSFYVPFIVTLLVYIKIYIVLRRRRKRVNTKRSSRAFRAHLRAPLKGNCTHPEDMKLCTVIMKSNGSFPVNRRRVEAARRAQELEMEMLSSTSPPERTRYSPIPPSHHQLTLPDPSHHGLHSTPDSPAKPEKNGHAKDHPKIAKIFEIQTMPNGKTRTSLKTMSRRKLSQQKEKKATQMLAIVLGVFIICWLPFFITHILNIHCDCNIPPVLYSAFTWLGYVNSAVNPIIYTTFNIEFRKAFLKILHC

D4 = D4 (Homo sapiens, UniProt P21917); test: G protein dissociation BRET assay; type: cell-based
D3 = D3 (Homo sapiens, UniProt P35462); test: G protein dissociation BRET assay; type: cell-based; details: relative to dopamine
rat cortical neurons [7] = test: Dendritogenesis; type: cell-based
[8] = Pharmacokinetics in plasma and brain of mice; details: for mean plasma Cmax / Cmax: IP 6.75 mg/kg; for mean terminal T1/2, plasma: range over doses; for Cmax: read-out: mean plasma Cmax
β1 = β1 (Homo sapiens, UniProt P08588); test: G protein dissociation BRET assay; type: cell-based; details: read-out: KB (antagonist)
Chain of β1 (P08588 whole entry): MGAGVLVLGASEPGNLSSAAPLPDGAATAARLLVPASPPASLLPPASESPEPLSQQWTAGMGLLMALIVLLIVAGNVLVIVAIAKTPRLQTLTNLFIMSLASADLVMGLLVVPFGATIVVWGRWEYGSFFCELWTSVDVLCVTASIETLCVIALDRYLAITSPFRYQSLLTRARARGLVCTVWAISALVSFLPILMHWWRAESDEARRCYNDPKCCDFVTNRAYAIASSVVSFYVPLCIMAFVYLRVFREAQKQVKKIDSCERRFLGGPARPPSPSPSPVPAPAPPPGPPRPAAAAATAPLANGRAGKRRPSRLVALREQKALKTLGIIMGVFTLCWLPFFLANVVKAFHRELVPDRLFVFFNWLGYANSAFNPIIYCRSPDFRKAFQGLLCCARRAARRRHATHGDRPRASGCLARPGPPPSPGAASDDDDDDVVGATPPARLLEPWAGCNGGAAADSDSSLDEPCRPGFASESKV

α2A = α2A (Homo sapiens, UniProt P08913); test: G protein dissociation BRET assay; type: cell-based; details: read-out: KB (antagonist)
Chain of α2A (P08913 whole entry): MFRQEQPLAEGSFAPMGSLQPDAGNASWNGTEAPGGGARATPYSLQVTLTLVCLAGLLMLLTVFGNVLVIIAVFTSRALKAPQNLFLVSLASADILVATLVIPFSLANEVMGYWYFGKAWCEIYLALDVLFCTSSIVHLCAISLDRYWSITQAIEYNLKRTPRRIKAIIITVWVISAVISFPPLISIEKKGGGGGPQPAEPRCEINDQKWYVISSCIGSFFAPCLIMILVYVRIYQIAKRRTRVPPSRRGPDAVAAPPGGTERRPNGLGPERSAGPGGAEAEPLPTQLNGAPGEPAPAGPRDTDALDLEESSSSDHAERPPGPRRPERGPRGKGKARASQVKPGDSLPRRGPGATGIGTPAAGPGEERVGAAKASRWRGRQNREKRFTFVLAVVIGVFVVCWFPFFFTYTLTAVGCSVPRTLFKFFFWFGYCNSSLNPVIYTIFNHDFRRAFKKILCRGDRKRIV

[9] = cited from earlier work
HTR induced by DOI [10] = test: Blockade of DOI-induced head-twitch response; details: DOI 1 mg/kg IP
5-HT2B = 5-HT2B (Homo sapiens, UniProt P41595); test: 5-HT2B Gq dissociation, β-arrestin2 recruitment BRET and calcium flux assays
Chain of 5-HT2B (P41595 whole entry): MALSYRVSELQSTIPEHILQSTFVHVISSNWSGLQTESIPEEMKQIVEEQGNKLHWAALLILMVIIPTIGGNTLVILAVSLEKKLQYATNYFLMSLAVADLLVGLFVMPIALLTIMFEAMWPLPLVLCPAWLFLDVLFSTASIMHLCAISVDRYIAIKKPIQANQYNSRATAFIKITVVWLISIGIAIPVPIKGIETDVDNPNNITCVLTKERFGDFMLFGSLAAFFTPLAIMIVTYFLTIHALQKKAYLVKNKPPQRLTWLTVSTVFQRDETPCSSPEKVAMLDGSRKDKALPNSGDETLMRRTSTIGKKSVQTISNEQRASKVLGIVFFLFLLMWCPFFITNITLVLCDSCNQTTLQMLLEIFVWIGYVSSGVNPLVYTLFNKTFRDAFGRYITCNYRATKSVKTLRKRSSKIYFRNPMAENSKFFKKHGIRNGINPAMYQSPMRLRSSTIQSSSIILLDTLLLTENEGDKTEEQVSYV

[11] = tested on: rest of the histamine and muscarinic GPCRs; test: G protein dissociation BRET assay; type: cell-based, human
5-HT2C = 5-HT2C (Homo sapiens, UniProt P28335); type: cell-based; details: Gq partial agonism
Chain of 5-HT2C (P28335 33-458): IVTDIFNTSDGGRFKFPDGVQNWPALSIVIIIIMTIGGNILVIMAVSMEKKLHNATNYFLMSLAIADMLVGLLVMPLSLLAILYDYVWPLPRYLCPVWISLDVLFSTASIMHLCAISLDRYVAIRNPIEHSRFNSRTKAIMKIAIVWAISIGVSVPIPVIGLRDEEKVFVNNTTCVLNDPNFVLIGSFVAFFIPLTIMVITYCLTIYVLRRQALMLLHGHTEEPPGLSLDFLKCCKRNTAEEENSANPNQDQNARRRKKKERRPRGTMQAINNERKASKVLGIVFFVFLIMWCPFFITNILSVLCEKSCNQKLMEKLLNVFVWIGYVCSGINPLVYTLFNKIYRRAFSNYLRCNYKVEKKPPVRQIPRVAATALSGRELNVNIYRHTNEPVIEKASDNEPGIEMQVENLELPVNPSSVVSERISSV

[12] = tested on: 5-HT1 Gi/o-coupled receptor subtypes; test: G protein dissociation BRET assay; type: cell-based, human
5-HT7a = 5-HT7a (Homo sapiens, UniProt P34969); test: cAMP accumulation GloSensor assay; type: cell-based; details: read-out: EC50 (inverse agonism)
Chain of 5-HT7a (P34969 1-445 isoform P34969-2): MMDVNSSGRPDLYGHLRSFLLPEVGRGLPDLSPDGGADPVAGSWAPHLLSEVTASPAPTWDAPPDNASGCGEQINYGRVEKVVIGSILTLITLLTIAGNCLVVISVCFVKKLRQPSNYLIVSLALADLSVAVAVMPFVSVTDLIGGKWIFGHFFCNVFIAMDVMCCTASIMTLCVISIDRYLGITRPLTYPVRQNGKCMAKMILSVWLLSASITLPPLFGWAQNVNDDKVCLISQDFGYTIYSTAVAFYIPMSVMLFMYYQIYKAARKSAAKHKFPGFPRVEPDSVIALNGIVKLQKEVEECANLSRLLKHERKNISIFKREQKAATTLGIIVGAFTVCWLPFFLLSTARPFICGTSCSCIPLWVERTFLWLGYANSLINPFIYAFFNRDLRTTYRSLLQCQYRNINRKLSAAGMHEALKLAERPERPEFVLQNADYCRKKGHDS

5-HT2A [13] = biological target: T2, 5-HT2A (Homo sapiens, UniProt P28223); type: cell-based; details: β-arrestin recruitment, normalized to 5-HT
T2 sequence (P28223 whole entry): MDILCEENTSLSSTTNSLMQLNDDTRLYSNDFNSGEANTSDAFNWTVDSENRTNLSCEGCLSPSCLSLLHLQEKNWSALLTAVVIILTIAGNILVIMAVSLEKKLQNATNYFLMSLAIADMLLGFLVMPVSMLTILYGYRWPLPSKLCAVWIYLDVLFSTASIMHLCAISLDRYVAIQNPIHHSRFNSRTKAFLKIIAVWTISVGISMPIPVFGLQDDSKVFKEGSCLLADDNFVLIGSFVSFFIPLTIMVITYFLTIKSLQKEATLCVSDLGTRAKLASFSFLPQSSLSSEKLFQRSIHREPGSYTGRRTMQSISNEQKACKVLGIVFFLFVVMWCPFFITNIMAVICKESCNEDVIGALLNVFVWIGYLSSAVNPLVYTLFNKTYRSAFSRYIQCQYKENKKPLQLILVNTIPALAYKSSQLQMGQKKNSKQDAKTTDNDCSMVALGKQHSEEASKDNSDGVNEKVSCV

D1/5 subtypes = test: G protein dissociation BRET assay; type: cell-based, human
5-HT2A [14] = biological target: T2, 5-HT2A; type: cell-based; details: Gq dissociation
33 human aminergic GPCRs = test: Pan-aminergic GPCR functional screen; type: cell-based; details: of 33 aminergic GPCR targets tested
5-HT6 = 5-HT6 (Homo sapiens, UniProt P50406); test: G protein dissociation BRET assay; type: cell-based; details: read-out: EC50 (partial agonism)
[15] = Chronic variable stress: open field test; type: in vivo, female mice
β2 = β2 (Homo sapiens, UniProt P07550); test: G protein dissociation BRET assay; type: cell-based; details: read-out: KB (antagonist)
5-HT2A [16] = biological target: T2, 5-HT2A; test: NanoBit HiBiT surface expression/internalization assay; type: cell-based; details: 60 minutes of treatment
[17] = tested on: 44 known off-targets and other transporters; test: Eurofins panel of 44 known off-targets and other transporters

T1 sequence (Q12809 whole entry): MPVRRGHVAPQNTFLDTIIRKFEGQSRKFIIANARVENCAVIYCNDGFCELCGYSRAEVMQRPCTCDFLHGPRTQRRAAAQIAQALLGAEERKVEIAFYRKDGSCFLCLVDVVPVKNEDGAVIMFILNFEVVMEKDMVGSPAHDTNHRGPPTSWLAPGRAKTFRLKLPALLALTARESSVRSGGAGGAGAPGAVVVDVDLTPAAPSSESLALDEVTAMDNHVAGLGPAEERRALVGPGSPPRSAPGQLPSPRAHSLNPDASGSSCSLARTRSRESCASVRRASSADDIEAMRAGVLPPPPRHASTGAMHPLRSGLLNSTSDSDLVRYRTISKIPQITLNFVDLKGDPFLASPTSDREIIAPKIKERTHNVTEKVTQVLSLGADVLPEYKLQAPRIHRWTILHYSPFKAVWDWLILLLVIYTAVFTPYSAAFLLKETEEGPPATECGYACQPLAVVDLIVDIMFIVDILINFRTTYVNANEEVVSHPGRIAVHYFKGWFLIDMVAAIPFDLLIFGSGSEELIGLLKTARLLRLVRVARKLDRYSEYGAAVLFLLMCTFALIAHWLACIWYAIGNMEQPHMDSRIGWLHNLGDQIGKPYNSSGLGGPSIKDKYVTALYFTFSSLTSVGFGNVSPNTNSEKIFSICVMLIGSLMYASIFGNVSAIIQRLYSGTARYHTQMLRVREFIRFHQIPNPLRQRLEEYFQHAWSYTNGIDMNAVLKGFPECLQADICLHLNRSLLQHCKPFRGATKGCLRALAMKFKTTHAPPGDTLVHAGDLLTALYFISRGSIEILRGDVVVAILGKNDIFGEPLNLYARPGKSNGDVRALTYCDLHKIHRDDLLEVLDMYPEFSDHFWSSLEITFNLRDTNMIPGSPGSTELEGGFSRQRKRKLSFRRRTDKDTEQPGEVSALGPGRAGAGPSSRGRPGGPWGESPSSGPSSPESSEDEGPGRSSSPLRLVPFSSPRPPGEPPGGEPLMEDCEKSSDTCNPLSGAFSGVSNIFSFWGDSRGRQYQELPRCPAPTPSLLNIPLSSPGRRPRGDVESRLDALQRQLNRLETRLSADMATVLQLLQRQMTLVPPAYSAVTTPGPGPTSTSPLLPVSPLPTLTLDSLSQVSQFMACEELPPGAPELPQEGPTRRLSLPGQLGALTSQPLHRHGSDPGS

CCN(CC)C(=O)[C@@H]1C=C2c3cccc4[nH]c(Br)c(c34)C[C@H]2N(C)C1.CCN(CC)C(=O)[C@@H]1C=C2c3cccc4[nH]c(Br)c(c34)C[C@H]2N(C)C1.O=C(O)C(O)C(O)C(=O)O [2-Br-LSD, (6aR,9R)-2-bromolysergic acid diethylamide (2:1) (+)-tartrate]
IC50 (hERG (KV11.1) channel [1]): 31600 nM
neuronal viability [2]: not different from control neurons
agonism at H2 (H2): weak partial agonism
induction of the HTR (head-twitch response; 0.1–10 mg/kg IP, male C57BL/6J mice, 60 min): did not induce the HTR
induction of the HTR after S-(–)-raclopride pretreatment (head-twitch response; raclopride 1 mg/kg, then 2-Br-LSD 3 mg/kg): did not induce the HTR
activity at 5-HT4 (5-HT4): lack potent agonist or antagonist activity
EC50 (hERG (KV11.1) channel [3]): 31600 nM
Kb (α1A): 43 nM
spine density (rat cortical neurons [4]): spine density increased
tolerance on HTR after repeated treatment (HTR induced by DOI [5]): no tolerance was observed
EC50 (α2C): 10.4 nM
EMAX (α2C; partial agonism): 40.5%
β-arrestin2 recruitment agonism (5-HT1A): no detectable β-arrestin2 recruitment agonism
self-grooming time in CVS mice [6]: partial reversal of CVS effects
average spine density in PFC (PFC pyramidal neurons): significant increase in average spine density
EC50 (D2): 0.35 nM
EC50 (D4): 1.2 nM
EMAX (D3): 32%
total length of the dendritic arbor (rat cortical neurons [7]; 1 and 10 μM, 3 h at DIV3): increased the total length of the dendritic arbor
number of dendrites crossing the Sholl radii (rat cortical neurons [7]; 3 h treatment DIV3, read DIV6, maximal at 1 and 10 μM): dose-dependent increase
level in the brain ([8]; 4 h post-dosing): below the lower limit of detection
plasma concentrations, male compared to female mice ([8]; IP): 2–5 x
mean plasma Cmax ([8]; females): 826.06 ng/mL
mean plasma Cmax ([8]; males): 1558.74 ng/mL
mean terminal T1/2, plasma ([8]; IP, female mice): 54 to 156 min
mean T1/2 in the brain ([8]; IP, females): 24 to 78 min
mean brain Tmax ([8]; IP, male and female mice): 10.2 min
mean terminal T1/2, plasma ([8]; IP, male mice): 72 to 84 min
mean T1/2 in the brain ([8]; IP, males): 42 to 60 min
plasma Tmax ([8]; IP, all groups except male mice at 0.75 mg/kg): 12 min
plasma Tmax ([8]; IP, male mice, 0.75 mg/kg): 30 min
Cmax ([8]; females): 2100 nM
Cmax ([8]; males): 3900 nM
Kb (β1): 113 nM
Kb (α2A): 12 nM
side effects in cluster headache patients ([9]; 30 μg/kg orally on three occasions): only minor side effects
efficacy against cluster headaches [9]: showed efficacy against cluster headaches
subjective effects in humans ([9]; intravenous infusion of 18–22 μg/kg): more intense effects
subjective effects in humans ([9]; oral doses 64–256 μg/kg): mild subjective responses
time-course of blockade of the response to DOI (HTR induced by DOI [10]; 1 mg/kg IP pre-treatment): almost completely blocked during the first 10 minutes
attenuation of the response to DOI (HTR induced by DOI [10]; 3 mg/kg IP pre-treatment, 30 min): 76%
5-HT2B agonist activity (5-HT2B; Gq dissociation, β-arrestin2 recruitment, Gq-mediated calcium flux): failed to induce
5-HT2B antagonist activity (5-HT2B; vs 5-HT): potent antagonist activity
agonism or antagonism at the rest of the histamine and muscarinic GPCRs [11]: neither 2-Br-LSD nor LSD possessed weak agonism or antagonism
EMAX (5-HT2C): 45.8%
agonism at all 5-HT1 subtypes [12]: potent pan-agonism
EC50 (5-HT7a): 5.1 nM
EMAX (5-HT2A [13]): 36.9%
agonism at D1/5 subtypes (D1/5 subtypes): lacks strong agonism
EC50 (5-HT2A [14]): 0.81 nM
EMAX (5-HT2A [14]; normalized to 5-HT): 59.8%
number of aminergic GPCR targets with agonist activity (33 human aminergic GPCRs): 14
EC50 (5-HT6): 0.35 nM
exploration of the arena center in CVS mice ([15]; 1X 3 mg/kg IP): partially restored the effect of CVS
exploration of the arena center in CVS mice ([15]; 4X 1 mg/kg IP every 48 h): levels matching the control
time exploring the center in CVS mice ([15]; 4X 1 mg/kg, 28 days after the last treatment): remained reversed
Kb (β2): 47 nM
5-HT2A internalization (loss of surface expression) (5-HT2A [16]): partial agonist effect
preference for serotonin and dopamine GPCRs over off-targets [17]: > 100 fold
